In patent US20230203043A1, “NOVEL IMIDAZOPYRAZINE DERIVATIVES” (Hoffmann-La Roche Inc., priority 2020, published 2023):
Where a name gives a salt, the structure may show the parent alone. Read-outs that look alike come from different tables or passages of the source.

Experiments:
[1] = tested on: Acinetobacter baumannii ATCC17968; test: Antimicrobial susceptibility testing: 90% growth inhibitory concentration (IC90) determination in Iso-Sensitest broth, OD600 growth; type: cell-based
In short: (§1)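 Twofold compound dilutions (e.g. 50 to 0.097 μM final) in Iso-Sensitest broth with ~5×10^(5) CFU/ml, 35±2 °C. OD600 read every 20 min over 16 h; IC90 from growth inhibition during logarithmic phase.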

[2] = tested on: Acinetobacter baumannii ATCC17961; test: as above; type: cell-based; conditions: strain ATCC 17961, OD600 growth over 16 h, read-out: A. baumannii ATCC 17961 IC90
In short: as §1

[3] = strain ATCC 17978, Iso-Sensitest broth, OD600 growth over 16 h, read-out: A. baumannii ATCC 17978 IC90

## CCc1cc(Nc2nccn3c(-c4cn(C)nc4C(F)(F)F)cnc23)ccc1C(=O)NCCOCCN [Example 1, N-[2-(2-aminoethoxy)ethyl]-2-ethyl-4-[[3-[1-methyl-3-(trifluoromethyl)pyrazol-4-yl]imidazo[1,2-a]pyrazin-8-yl]amino]benzamide]
[1]; Acinetobacter baumannii, ATCC 17968 / ATCC 17978, strain ATCC 17978, Iso-Sensitest broth, OD600 growth over 16 h, read-out: A. baumannii ATCC 17978 IC90
  IC90: 0.93 µM
[2]; Acinetobacter baumannii, ATCC17961, 16 h
  IC90: 623 nM

## CCc1cc(Nc2nccn3c(-c4cnn(CC(F)F)c4)cnc23)ccc1C(=O)NCCOCCN [Example 21, N-[2-(2-aminoethoxy)ethyl]-4-[[3-[1-(2,2-difluoroethyl)pyrazol-4-yl]imidazo[1,2-a]pyrazin-8-yl]amino]-2-ethylbenzamide formate]
[1]; Acinetobacter baumannii, ATCC 17968 / ATCC 17978, 16 h, read-out: A. baumannii ATCC 17978 IC90 (uM)
  IC90: 4.43 µM

## CCc1cc(Nc2nccn3c(-c4c[nH]nc4C(F)(F)F)cnc23)ccc1C(=O)NCCOCCN [Example 23, N-[2-(2-aminoethoxy)ethyl]-2-ethyl-4-[[3-[3-(trifluoromeethyl) 1H-pyrazol-4-yl]imidazo[1,2-a]pyrazin-8-yl]amino] benzamide formate]
[1]; [3]
  IC90: 0.297 µM
[2]
  IC90: 128 nM

## N-[2-(2- aminoethoxy)ethyl]- 2-ethyl-4-[[3- [1- (methoxymethyl)- 3- (trifluoromeethyl) pyrazol-4- yl]imidazo[1,2- a]pyrazin-8- yl]amino] benzamide formate [Example 22]
[1]; [3]
  IC90: 1.84 µM
[2]
  IC90: 1840 nM
